Measured values taken from US20230331691A1, “TREPROSTINIL DERIVATIVE COMPOUNDS AND METHODS OF USING SAME” (CORSAIR PHARMA, INC., priority 2013, published 2023).

Key:
[1] = Human liver microsomal stability assay (Test 1); assay type: in vitro ADME; conditions: human liver microsomes, 0.5 uM test compound, 37° C., up to 45 minutes, pH 7.4, NADPH generating system; read-out: Test 1 T½
Experimental: (§1) (Test 1) Human liver microsomal stability assay was conducted by incubating 0.5 uM test compounds at 37° C. for up to 45 minutes in 50 mM of potassium phosphate buffer (pH 7.4) containing 0.5 mg of microsomal protein and 50 µL of NADPH generating system (7.8 mg of glucose 6-phosphate, 1.7 mg of NADPH and 6 U of glucose 6-phosphate dehydrogenase per mL in 2% w/v of sodium bicarbonate). At 0, 5, 15, 30 and 45 min., an aliquot was taken, quenched with internal standard containing stop solution. No co-factor controls at 45 minutes were also prepared. After incubation, the samples were analyzed by LC-MS/MS. Peak area ratios of analyte to internal standard were used to calculate the intrinsic clearance. The intrinsic clearance (CLint) was determined from the first order elimination constant by non-linear regression. Formation of the active drug Compound A over the time course was also monitored by LC-MS/MS analysis.

[2] = Human plasma stability assay (Test 2); assay type: in vitro ADME; conditions: heparinated human plasma, 0.5 uM test compound, 37° C., up to 120 minutes; read-out: Test 2 T½
Experimental: (Test 2) Human plasma stability assay was conducted by incubating 0.5 uM test compounds at 37° C. for up to 120 minutes in heparinated human plasma. At 0, 5, 15, 30, 60 and 120 […] min., an aliquot was taken, quenched with internal standard containing stop solution. After incubation, the samples were analyzed by LC-MS/MS. Peak area ratios of analyte to internal standard were used to calculate the half-life. Formation of the active drug Compound A over the time course was also monitored by LC-MS/MS analysis.

[3] = Human hepatocyte stability assay (Test 4); assay type: in vitro ADME; conditions: cryopreserved human hepatocytes; human hepatocytes 0.5 million cells/mL, 0.5 uM test compound, 37° C., up to 240 minutes; read-out: Test 4 T½
Experimental: (Test 4) Human hepatocyte stability assay was conducted by incubating 0.5 uM test compound at 37° C. for up to 240 minutes. Cryopreserved human hepatocytes were obtained from Celsis IVT ( Baltimore, Maryland). Cells were thawed according to vendor’s instructions and were suspended in William’s Medium E to 0.5 million cells/mL. Test compounds were spiked into the cell suspension to initiate the reactions. At 0, 10, 30, 60, 120 and 240 min., an aliquot was taken, quenched with internal standard containing stop solution. After incubation, the samples were analyzed by LC-MS/MS. Peak area ratios of analyte to internal standard were used to calculate the intrinsic clearance. The intrinsic clearance (CLint) was determined from the first order elimination constant by non-linear regression. Formation of the active drug Compound A over the time course was also monitored by LC-MS/MS analysis.

[4] = treprostinil as the free acid, cited from earlier work
[5] = Human skin homogenate stability assay (Test 3); assay type: in vitro ADME; conditions: 0.5 uM test compound, 37° C., up to 45 minutes, pH 7.4, NADPH generating system, read-out: Test 3 T½
Experimental: as §1, with “3)” for “1)”, “skin homogenate” for “liver microsomal”, “conducted in a similar way as the human liver microsomal stability assay,” for “conducted”, “human skin homogenate” for “microsomal”

| Structure (SMILES) | half-life at 0.5 uM [1] | half-life at 0.5 uM [2] | half-life at 0.5 uM [3] | half-life at 0.5 uM [5] | absolute oral bioavailability ([4]; oral) | systemic half life ([4]; due to significant metabolism) |
| --- | --- | --- | --- | --- | --- | --- |
| CCCCC[C@H](O)CC[C@@H]1[C@H]2Cc3cccc(OCC(=O)NCCO)c3C[C@H]2C[C@H]1O [Compound 7, N-(2-Hydroxy-ethyl)-2-[2-hydroxy-1-(3-hydroxy-octyl)-2,3,3a,4,9,9a-hexahydro-1H-cyclopenta[b]naphthalen-5-yloxy]-acetamide] | 15 to 30 min | > 60 min | 15 to 30 min |  |  |  |
| CCCCC[C@H](O)CC[C@@H]1[C@H]2Cc3cccc(OCC(=O)O)c3C[C@H]2C[C@H]1O [treprostinil] |  |  |  |  | less than 10% | very short |
| CCCCC[C@H](O)CC[C@@H]1[C@H]2Cc3cccc(OCC(=O)N(C)CC(=O)OC)c3C[C@H]2C[C@H]1O [Compound 13, ({2-[2-Hydroxy-1-(3-hydroxy-octyl)-2,3,3a,4,9,9a-hexahydro-1H-cyclopenta[b]naphthalen-5-yloxy]-acetyl}-methyl-amino)-acetic acid methyl ester] | < 15 min | > 60 min | < 15 min |  |  |  |
| CCCCC[C@H](O)CC[C@@H]1[C@H]2Cc3cccc(OCC(=O)NCC4CC4)c3C[C@H]2C[C@H]1O [Compound 2, N-Cyclopropylmethyl-2-[2-hydroxy-1-(3-hydroxy-octyl)-2,3,3a,4,9,9a-hexahydro-1H-cyclopenta[b]naphthalen-5-yloxy]-acetamide] | < 15 min | > 60 min | 31 to 60 min |  |  |  |
| CCCCC[C@H](O)CC[C@@H]1[C@H]2Cc3cccc(OCC(=O)NCC(F)(F)F)c3C[C@H]2C[C@H]1O [Compound 14, 2-[2-Hydroxy-1-(3-hydroxy-octyl)-2,3,3a,4,9,9a-hexahydro-1H-cyclopenta[b]naphthalen-5-yloxy]-N-(2,2,2-trifluoro-ethyl)-acetamide] | < 15 min | > 60 min | < 15 min | > 60 min |  |  |

More lines, main results first:

| half-life at 0.5 uM [1] | half-life at 0.5 uM [2] | half-life at 0.5 uM [3] | half-life at 0.5 uM [5] | Structure (SMILES) | absolute oral bioavailability ([4]; oral) | systemic half life ([4]; due to significant metabolism) |
| --- | --- | --- | --- | --- | --- | --- |
| < 15 min | > 60 min |  | > 60 min | CCCCC[C@H](O)CC[C@@H]1[C@H]2Cc3cccc(OCC(=O)OC)c3C[C@H]2C[C@H]1OC(=O)CCCC [Compound 22, Pentanoic acid 1-(3-hydroxy-octyl)-5-methoxycarbonylmethoxy-2,3,3a,4,9,9a-hexahydro-1H-cyclopenta[b]naphthalen-2-yl ester] |  |  |
| < 15 min | 31 to 60 min |  | > 60 min | CCCCC[C@H](O)CC[C@@H]1[C@H]2Cc3cccc(OCC(=O)O[C@H](C)C(C)C)c3C[C@H]2C[C@H]1O [Compound 62] |  |  |
| < 15 min | 31 to 60 min |  | 15 to 30 min | CCCCC[C@H](O)CC[C@@H]1[C@H]2Cc3cccc(OCC(=O)OC(C)C(C)C)c3C[C@H]2C[C@H]1O (stereo partly drawn) [Compound 17, [2-Hydroxy-1-(3-hydroxy-octyl)-2,3,3a,4,9,9a-hexahydro-1H-cyclopenta[b]naphthalen-5-yloxy]-acetic acid 1,2-dimethyl-propyl ester] |  |  |
| < 15 min | 31 to 60 min |  | < 15 min | CCCCC[C@H](O)CC[C@@H]1[C@H]2Cc3cccc(OCC(=O)OC(C)C)c3C[C@H]2C[C@H]1O [Compound 20, [2-Hydroxy-1-(3-hydroxy-octyl)-2,3,3a,4,9,9a-hexahydro-1H-cyclopenta[b]naphthalen-5-yloxy]-acetic acid isopropyl ester] |  |  |
| < 15 min | 15 to 30 min |  | 31 to 60 min | CCCCC[C@H](O)CC[C@@H]1[C@H]2Cc3cccc(OCC(=O)O[C@@H](C)CC)c3C[C@H]2C[C@H]1O [Compound 61] |  |  |
| < 15 min | > 60 min |  | > 60 min | CCCCCCCCOC(=O)COc1cccc2c1C[C@H]1C[C@@H](O)[C@H](CC[C@@H](O)CCCCC)[C@H]1C2 [Compound 64] |  |  |
| < 15 min | > 60 min |  | > 60 min | CCCCC[C@H](O)CC[C@@H]1[C@H]2Cc3cccc(OCC(=O)OC(C)C(C)(C)C)c3C[C@H]2C[C@H]1O (stereo partly drawn) [Compound 18, [2-Hydroxy-1-(3-hydroxy-octyl)-2,3,3a,4,9,9a-hexahydro-1H-cyclopenta[b]naphthalen-5-yloxy]-acetic acid 1,2,2-trimethyl-propyl ester] |  |  |
